What was measured:
[1] = Permeability from apical to basolateral side of the Caco-2 cell membrane at 10 uM; assay type: ADME, cell-based; conditions: human
[2] = Permeability from basolateral to apical side of the Caco-2 cell membrane at 10 uM; assay type: ADME, cell-based; conditions: human
[3] = Stability in human liver microsomes at 1 uM; assay type: ADME, Microsome; conditions: read-out: Stability
Dipeptidyl peptidase 4 = Dipeptidyl peptidase 4 (Homo sapiens, UniProt P27487)
Dipeptidyl peptidase 4, sequence (P27487 whole entry): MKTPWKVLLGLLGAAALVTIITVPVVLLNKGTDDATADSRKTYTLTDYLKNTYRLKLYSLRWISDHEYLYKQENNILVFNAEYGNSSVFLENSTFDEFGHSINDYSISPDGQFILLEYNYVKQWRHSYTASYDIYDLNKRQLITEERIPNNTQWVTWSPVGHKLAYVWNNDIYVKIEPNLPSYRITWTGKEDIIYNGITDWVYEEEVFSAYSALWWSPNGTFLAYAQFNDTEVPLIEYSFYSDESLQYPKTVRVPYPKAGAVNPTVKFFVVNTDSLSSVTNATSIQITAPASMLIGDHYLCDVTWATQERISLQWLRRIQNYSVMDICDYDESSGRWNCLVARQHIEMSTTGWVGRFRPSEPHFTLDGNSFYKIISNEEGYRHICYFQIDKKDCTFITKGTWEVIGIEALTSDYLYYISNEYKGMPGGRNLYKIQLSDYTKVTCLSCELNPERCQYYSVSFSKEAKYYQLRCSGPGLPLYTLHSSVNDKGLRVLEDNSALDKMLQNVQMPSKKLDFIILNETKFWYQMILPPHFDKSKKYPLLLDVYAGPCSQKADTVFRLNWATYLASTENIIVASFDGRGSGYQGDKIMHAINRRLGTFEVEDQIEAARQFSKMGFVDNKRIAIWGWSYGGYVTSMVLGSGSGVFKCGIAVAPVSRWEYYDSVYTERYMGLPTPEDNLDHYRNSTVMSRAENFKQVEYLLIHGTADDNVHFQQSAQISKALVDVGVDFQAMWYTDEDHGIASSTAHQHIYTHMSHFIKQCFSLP

Row | Papp A→B at 10 µM [1] [×10⁻⁶ cm/s] | Papp B→A at 10 µM [2] [×10⁻⁶ cm/s] | remaining at 1 µM [3] [%] | Ki (Dipeptidyl peptidase 4) [µM] | Structure (SMILES)
1 | 4.93 | 4.93 | 73.9 | – | N#C[C@@H]1CCCN1C(=O)[C@@H](N)Cc1ccc(-c2ccc(F)cc2F)cc1
2 | 7.21 | 4.45 | 6.7 | – | N#C[C@@H]1CCCN1C(=O)[C@@H](N)Cc1ccc(-c2ccc(F)cc2)cc1
3 | 2.66 | 3.82 | 52.3 | – | N#C[C@@H]1CCCN1C(=O)[C@@H](N)Cc1ccc(-c2ccccc2)cc1
4 | 16.8 | 5.61 | 78.5 | – | N[C@@H](Cc1ccc(-c2ccc(F)cc2)cc1)C(=O)N1CCSC1

The next lines start with the compound.

Row | Structure (SMILES) | Papp A→B at 10 µM [1] [×10⁻⁶ cm/s] | Papp B→A at 10 µM [2] [×10⁻⁶ cm/s] | remaining at 1 µM [3] [%] | Ki (Dipeptidyl peptidase 4) [µM]
5 | N[C@@H](Cc1ccc(-c2ccccc2)cc1)C(=O)N1CCC[C@H]1COCc1ccccc1 | – | – | – | > 12.8
6 | N[C@@H](Cc1ccc(-c2ccccc2)cc1)C(=O)N1CCSC1 | 4.56 | 1.5 | 62 | –
7 | CC1(C)OCCN1C(=O)[C@@H](N)Cc1ccc(-c2ccccc2)cc1 | – | – | – | > 12.8
8 | N[C@@H](Cc1ccc(-c2ccccc2)cc1)C(=O)N1CCC[C@H]1CO | – | – | – | > 12.8
9 | N[C@@H](Cc1cccc2ccccc12)C(=O)N1CCSC1 | – | – | – | > 12.8
10 | N[C@@H](Cc1c[nH]c2ccccc12)C(=O)N1CCSC1 | – | – | – | > 12.8
